What all share (assay type): cell-based
Experiment [1] deals with JeKo-1 cells. Nature of the experiment: Antiproliferative effect, MTS cell viability assay, JeKo-1 cells. The settings on record: Homo sapiens; JeKo-1 mantle cell lymphoma cells; read-out: IC50 (anti-proliferation) JeKO-1 cells. In short, it runs like this:
(§1)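 Tested at six concentrations (0 to 10 μM in tenfold steps), 72 h; viability by MTS, A490.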
In general terms: Tetrazolium assays rely on reduction of a dye to a coloured formazan, in cell work by metabolically active cells.

The test system of experiment [2] is Mino cells. The experiment can be described thus: Antiproliferative effect, MTS cell viability assay, Mino cells. The note with it: Homo sapiens, MINO, Mino mantle cell lymphoma cells; read-out: IC50 (anti-proliferation) Mino cells. In short, it runs like this:
as §1

In experiment [3] the target is BTK (Homo sapiens, UniProt Q06187). Nature of the experiment: BTK degradation, DC50 and Dmax of Table 1 (cell line not given). On the set-up: endogenous in cells. The note with it: for DC50: concentration giving 50% reduction of BTK expression level.

Where only a bound is given, the exact number is not on record here.

Sequence of BTK (Q06187 whole entry): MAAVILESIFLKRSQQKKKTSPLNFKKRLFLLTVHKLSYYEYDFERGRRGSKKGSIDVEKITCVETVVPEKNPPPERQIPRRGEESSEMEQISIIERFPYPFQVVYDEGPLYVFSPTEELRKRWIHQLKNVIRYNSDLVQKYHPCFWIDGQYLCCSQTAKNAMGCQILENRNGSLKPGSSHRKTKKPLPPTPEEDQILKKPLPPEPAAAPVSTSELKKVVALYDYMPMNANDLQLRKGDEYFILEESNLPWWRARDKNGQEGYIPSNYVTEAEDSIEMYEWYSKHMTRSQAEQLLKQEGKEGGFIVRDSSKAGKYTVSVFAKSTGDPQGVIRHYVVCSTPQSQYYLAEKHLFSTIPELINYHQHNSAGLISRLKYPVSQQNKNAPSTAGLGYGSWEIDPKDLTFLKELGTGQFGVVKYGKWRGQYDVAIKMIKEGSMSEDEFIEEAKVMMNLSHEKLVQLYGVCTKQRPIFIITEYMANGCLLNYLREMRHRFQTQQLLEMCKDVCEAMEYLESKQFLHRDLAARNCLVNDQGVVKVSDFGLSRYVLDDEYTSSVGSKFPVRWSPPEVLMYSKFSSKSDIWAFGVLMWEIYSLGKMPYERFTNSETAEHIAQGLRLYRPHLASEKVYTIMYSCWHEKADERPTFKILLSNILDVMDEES

As to `Nc1ncnc2c1c(-c1ccc(Oc3ccccc3)cc1)nn2C1CCN(C(=O)N2CCC(CCN3CCN(c4ccc5c(c4)CN(C4CCC(=O)NC4=O)C5=O)CC3)CC2)CC1` (stereo not drawn) [Compound 94, 3-(5-(4-(2-(1-(4-(4-amino-3-(4-phenoxyphenyl)-1H-pyrazolo[3,4-d]pyrimidin-1-yl)piperidine-1-carbonyl)piperidin-4-yl)ethyl)piperazin-1-yl)-1-oxoisoindolin-2-yl)piperidine-2,6-dione], in experiment [1], the IC50 was in the range of 1 to 10 µM. In experiment [2], the IC50 was less than 1 µM. Also, in experiment [3], the Dmax was more than 90% and the 50% degradation concentration (DC50) lay within 0.01 to 0.05 µM.
Take `Nc1ncnc2c1c(-c1ccc(Oc3ccccc3)cc1)nn2C1CCN(C(=O)N2CCN(CCN3CCN(c4ccc5c(c4)C(=O)N(C4CCC(=O)NC4=O)C5=O)CC3)CC2)CC1` (stereo not drawn) [Compound 95, 5-(4-(2-(4-(4-(4-amino-3-(4-phenoxyphenyl)-1H-pyrazolo[3,4-d]pyrimidin-1-yl)piperidine-1-carbonyl)piperazin-1-yl)ethyl)piperazin-1-yl)-2-(2,6-dioxopiperidin-3-yl)isoindoline-1,3-dione]: in experiment [1], the IC50 was less than 1 µM. Also, in experiment [2], the IC50 fell in the range of 1 to 10 µM. Also, in experiment [3], the greatest degradation seen (Dmax) is more than 90% and the DC50 fell in the range of 0.01 to 0.05 µM.
Regarding `Nc1ncnc2c1c(-c1ccc(Oc3ccccc3)cc1)nn2C1CCN(C(=O)N2CCN(CCN3CCN(c4ccc5c(c4)CN(C4CCC(=O)NC4=O)C5=O)CC3)CC2)CC1` (stereo not drawn) [Compound 96, 3-(5-(4-(2-(4-(4-(4-amino-3-(4-phenoxyphenyl)-1H-pyrazolo[3,4-d]pyrimidin-1-yl)piperidine-1-carbonyl)piperazin-1-yl)ethyl)piperazin-1-yl)-1-oxoisoindolin-2-yl)piperidine-2,6-dione], the IC50 in experiment [1] and in experiment [2] was 1 to 10 µM in each case. The same molecule registered a maximal degradation (Dmax) in experiment [3] of more than 90%. The 50% degradation concentration (DC50) in experiment [3] fell in the range of 0.01 to 0.05 µM.
Consider `Nc1ncnc2c1c(-c1ccc(Oc3ccccc3)cc1)nn2C1CCN(C(=O)N2CCN(CCC3CCN(c4ccc5c(c4)C(=O)N(C4CCC(=O)NC4=O)C5=O)CC3)CC2)CC1` (stereo not drawn) [Compound 97, 5-(4-(2-(4-(4-(4-amino-3-(4-phenoxyphenyl)-1H-pyrazolo[3,4-d]pyrimidin-1-yl)piperidine-1-carbonyl)piperazin-1-yl)ethyl)piperidin-1-yl)-2-(2,6-dioxopiperidin-3-yl)isoindoline-1,3-dione], for which the IC50 in experiment [1] was in the range of 1 to 10 µM. The IC50 in experiment [2] was 1 to 10 µM. In experiment [3], the Dmax is more than 90% and the DC50 lay within 0.01 to 0.05 µM.
With `Nc1ncnc2c1c(-c1ccc(Oc3ccccc3)cc1)nn2C1CCN(C(=O)N2CCN(CCC3CCN(c4ccc5c(c4)CN(C4CCC(=O)NC4=O)C5=O)CC3)CC2)CC1` (stereo not drawn) [Compound 98, 3-(5-(4-(2-(4-(4-(4-amino-3-(4-phenoxyphenyl)-1H-pyrazolo[3,4-d]pyrimidin-1-yl)piperidine-1-carbonyl)piperazin-1-yl)ethyl)piperidin-1-yl)-1-oxoisoindolin-2-yl)piperidine-2,6-dione], the IC50 in experiment [1] was 1 to 10 µM. Further, the IC50 in experiment [2] lay in the range of 1 to 10 µM. In addition, in experiment [3], the Dmax is more than 90% and the DC50 was 0.01 to 0.05 µM.
For the molecule `Nc1ncnc2c1c(-c1ccc(Oc3ccccc3)cc1)nn2C1CCN(C(=O)N2CCN(CCN3CCC(c4ccc5c(c4)C(=O)N(C4CCC(=O)NC4=O)C5=O)CC3)CC2)CC1` (stereo not drawn) [Compound 99, 5-(1-(2-(4-(4-(4-amino-3-(4-phenoxyphenyl)-1H-pyrazolo[3,4-d]pyrimidin-1-yl)piperidine-1-carbonyl)piperazin-1-yl)ethyl)piperidin-4-yl)-2-(2,6-dioxopiperidin-3-yl)isoindoline-1,3-dione], in experiment [1], the IC50 fell in the range of 1 to 10 µM. Further, the IC50 in experiment [2] was more than 10 µM. In addition, in experiment [3], the maximal degradation (Dmax) is more than 90% and the 50% degradation concentration (DC50) is 0.01 to 0.05 µM.
The corresponding values for `Nc1ncnc2c1c(-c1ccc(Oc3ccccc3)cc1)nn2C1CCN(C(=O)N2CCN(CCN3CCC(c4ccc5c(c4)CN(C4CCC(=O)NC4=O)C5=O)CC3)CC2)CC1` (stereo not drawn) [Compound 100, 3-(5-(1-(2-(4-(4-(4-amino-3-(4-phenoxyphenyl)-1H-pyrazolo[3,4-d]pyrimidin-1-yl)piperidine-1-carbonyl)piperazin-1-yl)ethyl)piperidin-4-yl)-1-oxoisoindolin-2-yl)piperidine-2,6-dione] are 1 to 10 µM, 1 to 10 µM, more than 90% and 0.01 to 0.05 µM.
With `Nc1ncnc2c1c(-c1ccc(Oc3ccccc3)cc1)nn2C1CCN(C(=O)N2CCC(CCC3CCN(c4ccc5c(c4)C(=O)N(C4CCC(=O)NC4=O)C5=O)CC3)CC2)CC1` (stereo not drawn) [Compound 101, 5-(4-(2-(1-(4-(4-amino-3-(4-phenoxyphenyl)-1H-pyrazolo[3,4-d]pyrimidin-1-yl)piperidine-1-carbonyl)piperidin-4-yl)ethyl)piperidin-1-yl)-2-(2,6-dioxopiperidin-3-yl)isoindoline-1,3-dione], in experiment [1], the IC50 is more than 10 µM. Moreover, the IC50 in experiment [2] is more than 10 µM. In experiment [3], this molecule registered a Dmax of more than 90% and a DC50 of 0.01 to 0.05 µM.
`Nc1ncnc2c1c(-c1ccc(Oc3ccccc3)cc1)nn2C1CCN(C(=O)N2CCC(CCC3CCN(c4ccc5c(c4)CN(C4CCC(=O)NC4=O)C5=O)CC3)CC2)CC1` (stereo not drawn) [Compound 102, 3-(5-(4-(2-(1-(4-(4-amino-3-(4-phenoxyphenyl)-1H-pyrazolo[3,4-d]pyrimidin-1-yl)piperidine-1-carbonyl)piperidin-4-yl)ethyl)piperidin-1-yl)-1-oxoisoindolin-2-yl)piperidine-2,6-dione]: the IC50 in experiment [1] was more than 10 µM. Moreover, the IC50 in experiment [2] is 1 to 10 µM. In experiment [3], the greatest degradation seen (Dmax) is more than 90% and the DC50 lay in the range of 0.01 to 0.05 µM.
In the same order, the values of `Nc1ncnc2c1c(-c1ccc(Oc3ccccc3)cc1)nn2C1CCN(C(=O)N2CCC(CCN3CCC(c4ccc5c(c4)C(=O)N(C4CCC(=O)NC4=O)C5=O)CC3)CC2)CC1` (stereo not drawn) [Compound 103, 5-(1-(2-(1-(4-(4-amino-3-(4-phenoxyphenyl)-1H-pyrazolo[3,4-d]pyrimidin-1-yl)piperidine-1-carbonyl)piperidin-4-yl)ethyl)piperidin-4-yl)-2-(2,6-dioxopiperidin-3-yl)isoindoline-1,3-dione] are 1 to 10 µM, more than 10 µM, more than 90% and 0.01 to 0.05 µM.
In the case of `Nc1ncnc2c1c(-c1ccc(Oc3ccccc3)cc1)nn2C1CCN(C(=O)N2CCC(CCN3CCC(c4ccc5c(c4)CN(C4CCC(=O)NC4=O)C5=O)CC3)CC2)CC1` (stereo not drawn) [Compound 104, 3-(5-(1-(2-(1-(4-(4-amino-3-(4-phenoxyphenyl)-1H-pyrazolo[3,4-d]pyrimidin-1-yl)piperidine-1-carbonyl)piperidin-4-yl)ethyl)piperidin-4-yl)-1-oxoisoindolin-2-yl)piperidine-2,6-dione], the IC50 in experiment [1] fell in the range of 1 to 10 µM. Besides, the IC50 in experiment [2] was in the range of 1 to 10 µM. In addition, in experiment [3], the Dmax was more than 90% and the DC50 was 0.01 to 0.05 µM.
`Nc1ncnc2c1c(-c1ccc(Oc3ccccc3)cc1)nn2[C@@H]1CCCN(C(=O)N2CCC(CCCN3CCN(c4ccc5c(c4)C(=O)N(C4CCC(=O)NC4=O)C5=O)CC3)CC2)C1` (stereo partly drawn) [Compound 105, 5-(4-(3-(1-((R)-3-(4-amino-3-(4-phenoxyphenyl)-1H-pyrazolo[3,4-d]pyrimidin-1-yl)piperidine-1-carbonyl)piperidin-4-yl)propyl)piperazin-1-yl)-2-(2,6-dioxopiperidin-3-yl)isoindoline-1,3-dione]: the IC50 in experiment [1] was more than 10 µM. In addition, in experiment [2], the IC50 is more than 10 µM. For the same molecule, in experiment [3], the maximal degradation (Dmax) is more than 75% and the half-maximal degradation concentration (DC50) is more than 0.05 µM.

One may read the Dmax as the greatest extent of degradation seen. Higher therefore signals deep degradation. For orientation: DC50 means the concentration giving 50% degradation.

Values taken from patent publication US12139492B2 (Endotarget Inc., priority 2021, dated 2024).
